In ChEMBL document CHEMBL4699440, “Comprehensive review on the anti-bacterial activity of 1,2,3-triazole hybrids” (Eur J Med Chem, 2019):
≈ marks a conversion by molar mass, not a printed value. Blank lines part the entries; values can stand above or below the compound they belong to.

Legend:
Bacillus spizizenii = assay: Antibacterial activity against Bacillus subtilis ATCC 6633 incubated for 24 hrs by broth dilution method; type: functional
Micrococcus luteus [1] = assay: Antibacterial activity against Micrococcus luteus IFC 12708 incubated for 24 hrs by broth dilution method; type: functional
Salmonella typhimurium = assay: Antibacterial activity against Salmonella typhimurium ATCC 14028 incubated for 24 hrs by broth dilution method; type: functional, Salmonella enterica subsp. enterica serovar Typhimurium; conditions: Salmonella enterica
Proteus vulgaris [2] = assay: Antibacterial activity against Proteus vulgaris ATCC 3851 incubated for 24 hrs by broth dilution method; type: functional
Escherichia coli [3] = assay: Antibacterial activity against Escherichia coli ATCC 25922 incubated for 24 hrs by broth dilution method; type: functional
Staphylococcus aureus [4] = assay: Antibacterial activity against Staphylococcus aureus ATCC 6538p incubated for 24 hrs by broth dilution method; type: functional
Bacillus cereus [5] = assay: Antibacterial activity against Bacillus cereus ATCC 6630 incubated for 24 hrs; type: functional
Bacillus cereus [6] = assay: Antibacterial activity against Bacillus cereus RCMB-010067 assessed as diameter of inhibition zone at 5 mg/ml by diffusion technique; type: functional
[7] = tested on: Sphingomonas paucimobilis; assay: Antibacterial activity against Flavobacterium devorans ATCC 10829 incubated for 24 hrs; type: functional
Micrococcus luteus [8] = assay: Antibacterial activity against Micrococcus Luteus ATCC 398 incubated for 24 hrs; type: functional
Pseudomonas fluorescens [9] = assay: Antibacterial activity against Pseudomonas fluorescens NCIM 2173 incubated for 24 hrs; type: functional
Staphylococcus aureus [10] = assay: Antibacterial activity against Staphylococcus aureus RCMB-010010 assessed as diameter of inhibition zone at 5 mg/ml by diffusion technique; type: functional
Staphylococcus aureus [11] = assay: Antibacterial activity against Staphylococcus aureus ATCC 29737 incubated for 24 hrs; type: functional
Staphylococcus aureus [12] = assay: Antibacterial activity against methicillin-sensitive Staphylococcus aureus ATCC 29213; type: functional
Klebsiella aerogenes = assay: Antibacterial activity against Enterobacter aerogenes ATCC 13048; type: functional
Enterococcus faecalis [13] = assay: Antibacterial activity against Enterococcus faecalis ATCC 51299; type: functional
[14] = tested on: Staphylococcus epidermidis; assay: Antibacterial activity against methicillin-resistant Staphylococcus epidermidis 13-3; type: functional
Providencia rettgeri = assay: Antibacterial activity against Providencia rettgeri ATCC 31052; type: functional
Enterococcus faecium [15] = assay: Antibacterial activity against Enterococcus faecium ATCC 700221; type: functional
Proteus vulgaris [16] = assay: Antibacterial activity against Proteus vulgaris ATCC 29905; type: functional
Escherichia coli [17] = assay: Antibacterial activity against Escherichia coli 14-11; type: functional
Proteus mirabilis = assay: Antibacterial activity against Proteus mirabilis 13-1; type: functional
Pseudomonas aeruginosa [18] = assay: Antibacterial activity against Pseudomonas aeruginosa ATCC 27853; type: functional
Escherichia coli [19] = assay: Antibacterial activity against Escherichia coli ATCC 25922 after overnight incubation by CLSI M7-A9 based method; type: functional
Klebsiella pneumoniae [20] = assay: Antibacterial activity against Klebsiella pneumoniae ATCC 700603; type: functional
[21] = tested on: Stenotrophomonas maltophilia; assay: Antibacterial activity against Stenotrophomonas maltophilia ATCC 13636; type: functional
Morganella morganii = assay: Antibacterial activity against Morganella morganii ATCC 25830; type: functional
[22] = tested on: Acinetobacter calcoaceticus; assay: Antibacterial activity against Acinetobacter calcoaceticus ATCC 19606; type: functional
Enterococcus faecalis [23] = assay: Antibacterial activity against Enterococcus faecalis ATCC 29212 after overnight incubation by CLSI M7-A9 based method; type: functional
Staphylococcus aureus [24] = assay: Antibacterial activity against methicillin-resistant Staphylococcus aureus ATCC 33591; type: functional
Klebsiella pneumoniae [25] = assay: Antibacterial activity against Klebsiella pneumoniae 7; type: functional
Citrobacter freundii = assay: Antibacterial activity against Citrobacter freundii ATCC 43864; type: functional
Enterobacter cloacae = assay: Antibacterial activity against Enterobacter cloacae ATCC 43560; type: functional
Serratia marcescens = assay: Antibacterial activity against Serratia marcescens ATCC 21074; type: functional
[26] = tested on: Staphylococcus epidermidis; assay: Antibacterial activity against methicillin-sensitive Staphylococcus epidermidis ATCC 12228; type: functional
Enterococcus faecium [27] = assay: Antibacterial activity against Enterococcus faecium 13-7; type: functional
Bacillus subtilis [28] = assay: Antibacterial activity against Bacillus subtilis NCIM-2162 incubated for 12 hrs; type: functional
Pseudomonas fluorescens [29] = assay: Antibacterial activity against Pseudomonas fluorescence NCIM-2059 incubated for 8 hrs; type: functional
Escherichia coli [30] = assay: Antibacterial activity against Escherichia coli NCIM-2576 incubated for 8 hrs; type: functional
Staphylococcus aureus [31] = assay: Antibacterial activity against Staphylococcus aureus NCIM-2602 incubated for 12 hrs; type: functional
Escherichia coli [32] = assay: Antibacterial activity against Escherichia coli MTCC 443 incubated for 24 hrs by microdilution method; type: functional
[33] = tested on: Staphylococcus epidermidis; assay: Antibacterial activity against Staphylococcus epidermidis incubated for 24 hrs by microdilution method; type: functional
Bacillus subtilis [34] = assay: Antibacterial activity against Bacillus subtilis MTCC 441 incubated for 24 hrs by microdilution method; type: functional
Staphylococcus aureus [35] = assay: Antibacterial activity against Staphylococcus aureus MTCC 96 incubated for 24 hrs by microdilution method; type: functional
Pseudomonas aeruginosa [36] = assay: Antibacterial activity against Pseudomonas aeruginosa MTCC 741 incubated for 24 hrs by microdilution method; type: functional
Klebsiella pneumoniae [37] = assay: Antibacterial activity against Klebsiella pneumoniae MTCC 618 incubated for 24 hrs by microdilution method; type: functional
Pseudomonas aeruginosa [38] = assay: Antibacterial activity against Pseudomonas aeruginosa RCMB-010043 assessed as diameter of inhibition zone at 5 mg/ml by diffusion technique; type: functional; conditions: read-out: DIZ
Candida albicans = assay: Antifungal activity against Candida albicans RCMB-05036 assessed as diameter of inhibition zone at 5 mg/ml by diffusion technique; type: functional; conditions: read-out: DIZ
Aspergillus fumigatus = assay: Antifungal activity against Aspergillus fumigatus RCMB-02568 assessed as diameter of inhibition zone at 5 mg/ml by diffusion technique; type: functional; conditions: read-out: DIZ
HepG2 = assay: Anticancer activity against human HepG2 cells by MTT assay; type: functional, cell-based
[39] = tested on: Syncephalastrum racemosum; assay: Antifungal activity against Syncephalastrum racemosum RCMB-05922 assessed as diameter of inhibition zone at 5 mg/ml by diffusion technique; type: functional; conditions: read-out: DIZ
Geotrichum candidum = assay: Antifungal activity against Geotrichum candidum RCMB-05097 assessed as diameter of inhibition zone at 5 mg/ml by diffusion technique; type: functional; conditions: read-out: DIZ
Escherichia coli [40] = assay: Antibacterial activity against Escherichia coli RCMB-010052 assessed as diameter of inhibition zone at 5 mg/ml by diffusion technique; type: functional; conditions: read-out: DIZ

MIC (Bacillus spizizenii): 1.56 µg/mL (≈ 2.25 µM) | MIC (Micrococcus luteus [1]): 1.56 µg/mL (≈ 2.25 µM) | MIC (Salmonella typhimurium): 1.56 µg/mL (≈ 2.25 µM) | MIC (Proteus vulgaris [2]): 1.56 µg/mL (≈ 2.25 µM) | MIC (Escherichia coli [3]): 1.56 µg/mL (≈ 2.25 µM) | MIC (Staphylococcus aureus [4]): 1.56 µg/mL (≈ 2.25 µM)
Structure (SMILES): CC1(C)O[C@H]2O[C@@H]([C@H]3SC(Cc4nc5ccccc5[nH]4)C(=O)N3c3ccc(Cl)cc3)[C@@H](OCc3cn(-c4ccc(Cl)cc4)nn3)[C@H]2O1 (stereo not given in full)

Structure (SMILES): CC1(C)S[C@@H]2[C@H](NC(=O)[C@H](N)c3ccccc3)C(=O)N2[C@H]1C(=O)O [AMPICILLIN]
MIC (Bacillus cereus [5]): 2 µg/mL (≈ 5.72 µM) | zone of inhibition at 5000 µg/mL (Bacillus cereus [6]; read-out: IZ): 23.8 mm | MIC (Bacillus spizizenii): 1.56 µg/mL (≈ 4.46 µM) | MIC [7]: 2 µg/mL (≈ 5.72 µM) | MIC (Micrococcus luteus [8]): 2 µg/mL (≈ 5.72 µM) | MIC (Micrococcus luteus [1]): 1.56 µg/mL (≈ 4.46 µM) | MIC (Salmonella typhimurium): 1.56 µg/mL (≈ 4.46 µM) | MIC (Pseudomonas fluorescens [9]): 2 µg/mL (≈ 5.72 µM) | MIC (Proteus vulgaris [2]): 1.56 µg/mL (≈ 4.46 µM) | zone of inhibition at 5000 µg/mL (Staphylococcus aureus [10]; read-out: IZ): 32.4 mm | MIC (Staphylococcus aureus [11]): 2 µg/mL (≈ 5.72 µM) | MIC (Escherichia coli [3]): 1.56 µg/mL (≈ 4.46 µM) | MIC (Staphylococcus aureus [4]): 1.56 µg/mL (≈ 4.46 µM)

Structure (SMILES): C[C@H]1COc2c(N3CCN(C)CC3)c(F)cc3c(=O)c(C(=O)O)cn1c23.C[C@H]1COc2c(N3CCN(C)CC3)c(F)cc3c(=O)c(C(=O)O)cn1c23.O [LEVOFLOXACIN]
MIC (Staphylococcus aureus [12]): ≤ 0.03 µg/mL | MIC (Klebsiella aerogenes): ≤ 0.03 µg/mL | MIC (Enterococcus faecalis [13]): ≤ 0.03 µg/mL | MIC [14]: ≤ 0.03 µg/mL | MIC (Providencia rettgeri): ≤ 0.03 µg/mL | MIC (Enterococcus faecium [15]): ≤ 0.03 µg/mL | MIC (Proteus vulgaris [16]): ≤ 0.03 µg/mL | MIC (Escherichia coli [17]): ≤ 0.03 µg/mL | MIC (Proteus mirabilis): ≤ 0.03 µg/mL | MIC (Pseudomonas aeruginosa [18]): ≤ 0.03 µg/mL | MIC (Escherichia coli [19]): ≤ 0.03 µg/mL | MIC (Klebsiella pneumoniae [20]): ≤ 0.03 µg/mL | MIC [21]: ≤ 0.03 µg/mL | MIC (Morganella morganii): ≤ 0.03 µg/mL | MIC [22]: ≤ 0.03 µg/mL | MIC (Enterococcus faecalis [23]): ≤ 0.03 µg/mL | MIC (Staphylococcus aureus [24]): ≤ 0.03 µg/mL | MIC (Klebsiella pneumoniae [25]): ≤ 0.03 µg/mL | MIC (Citrobacter freundii): ≤ 0.03 µg/mL | MIC (Enterobacter cloacae): ≤ 0.03 µg/mL | MIC (Serratia marcescens): ≤ 0.03 µg/mL | MIC [26]: ≤ 0.03 µg/mL | MIC (Enterococcus faecium [27]): ≤ 0.03 µg/mL

MIC90 (Bacillus subtilis [28]): 4.5 µg/mL (≈ 10.5 µM) | MIC90 (Pseudomonas fluorescens [29]): 4.5 µg/mL (≈ 10.5 µM) | MIC90 (Escherichia coli [30]): 4.5 µg/mL (≈ 10.5 µM) | MIC90 (Staphylococcus aureus [31]): 4.5 µg/mL (≈ 10.5 µM)
Structure (SMILES): COc1ccc(-c2cnnn2Cc2csc(-c3ccc(Br)cc3)n2)cc1

MIC (Escherichia coli [32]): 18.8 µg/mL (≈ 32 µM) | MIC [33]: 18.8 µg/mL (≈ 32 µM) | MIC (Bacillus subtilis [34]): 18.8 µg/mL (≈ 32 µM) | MIC (Staphylococcus aureus [35]): 18.8 µg/mL (≈ 32 µM) | MIC (Pseudomonas aeruginosa [36]): 18.8 µg/mL (≈ 32 µM) | MIC (Klebsiella pneumoniae [37]): 18.8 µg/mL (≈ 32 µM)
Structure (SMILES): O=C(c1cn(Cc2cn(-c3ccc(C(F)(F)F)cc3)nn2)c2cc(N3CCOCC3)c(F)cc2c1=O)N1CCOCC1

MIC (Escherichia coli [32]): 18.8 µg/mL (≈ 34.4 µM) | MIC [33]: 18.8 µg/mL (≈ 34.4 µM) | MIC (Bacillus subtilis [34]): 18.8 µg/mL (≈ 34.4 µM) | MIC (Staphylococcus aureus [35]): 18.8 µg/mL (≈ 34.4 µM) | MIC (Pseudomonas aeruginosa [36]): 18.8 µg/mL (≈ 34.4 µM) | MIC (Klebsiella pneumoniae [37]): 18.8 µg/mL (≈ 34.4 µM)
Structure (SMILES): COc1ccc(-n2cc(Cn3cc(C(=O)N4CCCCC4)c(=O)c4cc(F)c(N5CCCCC5)cc43)nn2)cc1

IC50 (HepG2): 11.6 µg/mL (≈ 21.1 µM)
Structure (SMILES): COC(=O)c1ccc(-n2nc(N)c(C(=O)NCCNC(=O)c3nn(-c4ccc(C(=O)OC)cc4)nc3N)n2)cc1
zone of inhibition at 5000 µg/mL (Pseudomonas aeruginosa [38]): 20.4 mm | zone of inhibition at 5000 µg/mL (Candida albicans): 20.4 mm | zone of inhibition at 5000 µg/mL (Bacillus cereus [6]; read-out: DIZ): 20.4 mm | zone of inhibition at 5000 µg/mL (Aspergillus fumigatus): 20.4 mm | zone of inhibition at 5000 µg/mL [39]: 20.4 mm | zone of inhibition at 5000 µg/mL (Staphylococcus aureus [10]; read-out: DIZ): 20.4 mm | zone of inhibition at 5000 µg/mL (Geotrichum candidum): 20.4 mm | zone of inhibition at 5000 µg/mL (Escherichia coli [40]): 20.4 mm

Structure (SMILES): COc1c(N2CCN(CCn3ccnn3)CC2)c(F)cc2c(=O)c(C(=O)O)cn(C3CC3)c12
MIC (Staphylococcus aureus [12]): ≥ 0.5 µg/mL | MIC (Klebsiella aerogenes): ≥ 0.5 µg/mL | MIC (Enterococcus faecalis [13]): ≥ 0.5 µg/mL | MIC [14]: ≥ 0.5 µg/mL | MIC (Providencia rettgeri): ≥ 0.5 µg/mL | MIC (Enterococcus faecium [15]): ≥ 0.5 µg/mL | MIC (Proteus vulgaris [16]): ≥ 0.5 µg/mL | MIC (Escherichia coli [17]): ≥ 0.5 µg/mL | MIC (Proteus mirabilis): ≥ 0.5 µg/mL | MIC (Pseudomonas aeruginosa [18]): ≥ 0.5 µg/mL | MIC (Escherichia coli [19]): ≥ 0.5 µg/mL | MIC (Klebsiella pneumoniae [20]): ≥ 0.5 µg/mL | MIC [21]: ≥ 0.5 µg/mL | MIC (Morganella morganii): ≥ 0.5 µg/mL | MIC [22]: ≥ 0.5 µg/mL | MIC (Enterococcus faecalis [23]): ≥ 0.5 µg/mL | MIC (Staphylococcus aureus [24]): ≥ 0.5 µg/mL | MIC (Klebsiella pneumoniae [25]): ≥ 0.5 µg/mL | MIC (Citrobacter freundii): ≥ 0.5 µg/mL | MIC (Enterobacter cloacae): ≥ 0.5 µg/mL | MIC (Serratia marcescens): ≥ 0.5 µg/mL | MIC [26]: ≥ 0.5 µg/mL | MIC (Enterococcus faecium [27]): ≥ 0.5 µg/mL
